Test results as given in US7960556B2, “Thiadiazole derivatives for the treatment of neuro-degenerative diseases” (NV reMYND, priority 2006, dated 2011).
pEC50: −log10 of the molar value.

Tested on: α-synuclein cytotoxicity in M17-SYNwt cells
Test: α-synuclein cytotoxicity assay: LDH leakage from paraquat-treated M17-SYNwt neuroblastoma cells;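 note: paraquat at 32 mM co-added with compound, 40 h exposure, LDH activity released into the culture medium measured, references are DMSO-only cells and paraquat plus DMSO cells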
Settings: Homo sapiens, Neuroblastoma cell; for Emax: read-out: % Inhib.

SMILES	Emax [%]	pEC50
Cc1ccc(C(=O)N2CCN(c3nc(Cc4ccc(F)cc4)ns3)CC2C)cc1[N+](=O)[O-] (centres unmarked) [compound 172, 1-(3-nitro-4-methylbenzoyl)-4-[3-(4-fluorobenzyl)-1,2,4-thiadiazol-5-yl]-2-methylpiperazine]	86	
COc1cccc(Cc2nsc(N3CCN(C(=O)c4ccccc4)C(C)C3)n2)c1 (centres unmarked) [compound 173, 1-benzoyl-4-[3-(3-methoxybenzyl)-1,2,4-thiadiazol-5-yl]-2-methylpiperazine]	85	
COc1cccc(Cc2nsc(N3CCN(C(=O)c4ccc(Cl)cc4)C(C)C3)n2)c1 (centres unmarked) [compound 174, 1-(4-chlorobenzoyl)-4-[3-(3-methoxybenzyl)-1,2,4-thiadiazol-5-yl]-2-methylpiperazine]	83	
Cc1ccc(Cc2nsc(N3CCN(C(=O)c4ccccc4F)CC3)n2)cc1 [compound 175, 1-(2-fluorobenzoyl)-4-[3-(4-methylbenzyl)-1,2,4-thiadiazol-5-yl]piperazine]	78	
CCCCCCc1ccc(C(=O)N2CCN(c3nc(Cc4ccc(C)cc4)ns3)CC2)cc1 [compound 176, 1-(4-hexylbenzoyl)-4-[3-(4-methylbenzyl)-1,2,4-thiadiazol-5-yl]piperazine]	77	
CC1CN(c2nc(Cc3ccc(F)cc3)ns2)CCN1C(=O)c1ccc([N+](=O)[O-])cc1Cl (centres unmarked) [compound 177, 1-(2-chloro-4-nitrobenzoyl)-4-[3-(4-fluorobenzyl)-1,2,4-thiadiazol-5-yl]-2-methylpiperazine]	77	
CC1CN(c2nc(Cc3ccc(F)cc3)ns2)CCN1C(=O)c1ccc2c(c1)OCO2 (centres unmarked) [compound 178, 1-(1,3-benzodioxol-5-ylcarbonyl)-4-[3-(4-fluorobenzyl)-1,2,4-thiadiazol-5-yl]-2-methylpiperazine]	68	
CC1CN(c2nc(Cc3ccc(F)cc3)ns2)CCN1C(=O)c1cccc(F)c1 (centres unmarked) [compound 179, 1-(3-fluorobenzoyl)-4-[3-(4-fluorobenzyl)-1,2,4-thiadiazol-5-yl]-2-methylpiperazine]	68	
CC(C)(C)c1ccc(C(=O)N2CCN(c3nc(Cc4ccc(F)cc4)ns3)CC2)cc1 [compound 180, 1-(4-tert-butylbenzoyl)-4-[3-(4-fluorobenzyl)-1,2,4-thiadiazol-5-yl]piperazine]	62	
O=C(c1ccccc1)N1CCN(c2nc(Cc3ccc(F)cc3)ns2)CC1 [compound 181, 1-benzoyl-4-[3-(4-fluorobenzyl)-1,2,4-thiadiazol-5-yl]piperazine]	60	
CCCCc1ccc(C(=O)N2CCN(c3nc(Cc4ccc(C)cc4)ns3)CC2)cc1 [compound 182, 1-(4-butylbenzoyl)-4-[3-(4-methylbenzyl)-1,2,4-thiadiazol-5-yl]piperazine]	57	
Cc1ccc(Cc2nsc(N3CCN(C(=O)c4ccc(C(C)(C)C)cc4)CC3)n2)cc1 [compound 183, 1-(4-tert-butylbenzoyl)-4-[3-(4-methylbenzyl)-1,2,4-thiadiazol-5-yl]piperazine]	52	
CC1CN(c2nc(Cc3ccc(F)cc3)ns2)CCN1C(=O)c1ccc([N+](=O)[O-])cc1 (centres unmarked) [compound 184, 1-(4-nitrobenzoyl)-4-[3-(4-fluorobenzyl)-1,2,4-thiadiazol-5-yl]-2-methylpiperazine]	52	
CCOc1ccccc1N1CCN(c2nc(Cc3ccc(F)cc3)ns2)CC1 [compound 186, 1-(2-ethoxyphenyl)-4-[3-(4-fluorobenzyl)-1,2,4-thiadiazol-5-yl]piperazine]	94	5.69
Fc1ccc(Cc2nsc(N3CCN(c4ccccc4F)CC3)n2)cc1 [compound 187, 1-(2-fluorophenyl)-4-[3-(4-fluorobenzyl)-1,2,4-thiadiazol-5-yl]piperazine]	83	5.55
Fc1ccc(Cc2nsc(N3CCN(c4cccc(C(F)(F)F)c4)CC3)n2)cc1 [compound 188, 1-(3-trifluoromethylphenyl)-4-[3-(4-fluorobenzyl)-1,2,4-thiadiazol-5-yl]piperazine]	96	
O=C(c1ccc(Cl)cc1)N1CCCN(c2nc(Cc3ccc(F)cc3)ns2)CC1 [compound 189, 1-(4-chlorobenzoyl)-4-[3-(4-fluorobenzyl)-1,2,4-thiadiazol-5-yl]-1,4-diazepane]	85	6.77

SMILES	Emax [%]	pEC50
Cc1ccc(C(=O)N2CCCN(c3nc(Cc4ccc(F)cc4)ns3)CC2)cc1 [compound 190, 1-(4-methylbenzoyl)-4-[3-(4-fluorobenzyl)-1,2,4-thiadiazol-5-yl]-1,4-diazepane]	87	5.56
O=C(c1ccc2c(c1)OCO2)N1CCCN(c2nc(Cc3ccc(F)cc3)ns2)CC1 [compound 191, 1-(1,3-benzodioxol-5-ylcarbonyl)-4-[3-(4-fluorobenzyl)-1,2,4-thiadiazol-5-yl]-1,4-diazepane]	63	
COc1ccc(S(=O)(=O)N2CCN(c3nc(Cc4cccc(F)c4)ns3)CC2)cc1 [compound 193, 1-[4-methoxyphenylsulfonyl]-4-[3-(3-fluoro-benzyl)-1,2,4-thiadiazol-5-yl]piperazine]	68	7.97
COc1ccc(S(=O)(=O)N2CCN(c3nc(Cc4ccccc4F)ns3)CC2)cc1 [compound 194, 1-[4-methoxyphenylsulfonyl]-4-[3-(2-fluoro-benzyl)-1,2,4-thiadiazol-5-yl]piperazine]	102	8.57
COc1ccccc1S(=O)(=O)N1CCN(c2nc(Cc3ccc(F)cc3)ns2)CC1 [compound 195]	99	7.25
CCOc1ccc(S(=O)(=O)N2CCN(c3nc(Cc4ccc(F)cc4)ns3)CC2)cc1 [compound 196, 1-[4-ethoxyphenylsulfonyl]-4-[3-(4-fluoro-benzyl)-1,2,4-thiadiazol-5-yl]piperazine]	42	7.75
CCc1ccc(S(=O)(=O)N2CCN(c3nc(Cc4ccc(F)cc4)ns3)CC2)cc1 [compound 197, 1-[4-ethylphenylsulfonyl]-4-[3-(4-fluoro-benzyl)-1,2,4-thiadiazol-5-yl]piperazine]	84	6.27
O=S(=O)(c1ccccc1)N1CCN(c2nc(Cc3ccc(F)cc3)ns2)CC1 [compound 198, 1-phenylsulfonyl-4-[3-(4-fluoro-benzyl)-1,2,4-thiadiazol-5-yl]piperazine]	25	6.46
COc1ccc(S(=O)(=O)N2CCN(c3nc(Cc4ccccc4)ns3)CC2)cc1 [compound 199, 1-[4-methoxyphenylsulfonyl]-4-[3-benzyl-1,2,4-thiadiazol-5-yl]piperazine]	38	8.42
COc1ccc(S(=O)(=O)N2CCN(c3nc(Cc4cccc(OC)c4)ns3)CC2C)cc1 (centres unmarked) [compound 208, 1-[4-methoxyphenylsulfonyl]-4-[3-(3-methoxybenzyl)-1,2,4-thiadiazol-5-yl]-2-methyl-piperazine]		8.14
COc1ccc(S(=O)(=O)NCCNc2nc(Cc3cccc(OC)c3)ns2)cc1 [compound 209, 1-N-[4-methoxyphenylsulfonyl]-N′-[3-(3-methoxybenzyl)-1,2,4-thiadiazol-5-yl]-ethane-1,2-diamine]	100	6.50
COc1ccc(S(=O)(=O)NCCCNc2nc(Cc3cccc(OC)c3)ns2)cc1 [compound 211, N-[4-methoxyphenylsulfonyl]-N′-[3-(3-methoxybenzyl)-1,2,4-thiadiazol-5-yl]-propane-1,3-diamine]	100	6.44
COc1ccc(S(=O)(=O)NCCN(C)c2nc(Cc3cccc(OC)c3)ns2)cc1 [compound 213, N′-[4-methoxyphenylsulfonyl]-N-[3-(3-methoxybenzyl)-1,2,4-thiadiazol-5-yl]-N-methylethane-1,2-diamine]	94	6.44
COc1ccc(S(=O)(=O)N(C)CCNc2nc(Cc3cccc(OC)c3)ns2)cc1 [compound 214, N′-[4-methoxyphenylsulfonyl]-N-[3-(3-methoxybenzyl)-1,2,4-thiadiazol-5-yl]-N′-methylethane-1,2-diamine]	95	6.30
COc1ccc(S(=O)(=O)N(C)CCN(C)c2nc(Cc3cccc(OC)c3)ns2)cc1 [compound 215, N′-[4-methoxyphenylsulfonyl]-N-[3-(3-methoxybenzyl)-1,2,4-thiadiazol-5-yl]-N,N′-dimethylethane-1,2-diamine]	105	6.52
O=S(=O)(c1ccc(O)cc1)N1CCN(c2nc(Cc3ccc(F)cc3)ns2)CC1 [compound 217, 1-(4-hydroxybenzenesulfonyl)-4-[3-(4-fluoro-benzyl)-1,2,4-thiadiazol-5-yl]piperazine]	77	7.11
